Measured values reported in the CheMixHub viscosity set.
Several values for one entry are separate records, joined by “and”; a condition that tells them apart may be missing. Equal entries are not always repeated.

Test: xn = mol fraction of the nth substance listed

CCCCC(CC)COP(=O)(O)OCC(CC)CCCC (stereo not given) + Clc1ccccc1
viscosity [mPa·s], 101 kPa
Conditions | x1 = 0.0374 | x1 = 0.0804 | x1 = 0.1303 | x1 = 0.1888 | x1 = 0.2587 | x1 = 0.3436 | x1 = 0.4481 | x1 = 0.5826 | x1 = 0.7584
303.15 K | 0.8898 | 1.127 | 1.45 | 1.903 | 2.556 | 3.531 | 5.039 | 7.539 | 11.9
313.15 K | 0.766 | 0.9413 | 1.176 | 1.498 | 1.953 | 2.619 | 3.629 | 5.271 | 8.078
323.15 K | 0.6693 | 0.7965 | 0.9633 | 1.187 | 1.497 | 1.939 | 2.595 | 3.637 | 5.374

Cc1cccc(O)c1 + C[N+](C)(C)CCO.[Cl-]
298.15 K, 101.33 kPa
Conditions | viscosity
x1 = 0.7 | 138.1 mPa·s
x1 = 0.8 | 74.18 mPa·s and 56.16 mPa·s and 49.24 mPa·s
x1 = 0.9 | 39.12 mPa·s

CC(=O)c1ccc(C)cc1 + CN(C)c1ccccc1
viscosity [mPa·s], 101 kPa
Conditions | 303.15 K | 308.15 K
x2 = 0.0481 | 1.541 | 1.493
x2 = 0.0942 | 1.512 | 1.462
x2 = 0.1558 | 1.478 | 1.428
x2 = 0.2311 | 1.442 | 1.39
x2 = 0.2972 | 1.411 | 1.359
x2 = 0.3584 | 1.382 | 1.33
x2 = 0.4254 | 1.356 | 1.303
x2 = 0.4949 | 1.331 | 1.275
x2 = 0.5492 | 1.31 | 1.252
x2 = 0.5964 | 1.295 | 1.234
x2 = 0.6887 | 1.264 | 1.204
x2 = 0.7635 | 1.24 | 1.181
x2 = 0.8596 | 1.213 | 1.149

CCCCC(CC)COP(=O)(O)OCC(CC)CCCC (stereo not given) + CCCCO
303.15 K, 101 kPa
Conditions | viscosity [mPa·s]
x1 = 0.0419 | 2.97
x1 = 0.0842 | 3.693
x1 = 0.1206 | 4.321
x1 = 0.2162 | 6.156
x1 = 0.3122 | 8.132
x1 = 0.4528 | 11.18
x1 = 0.5519 | 12.85
x1 = 0.6567 | 14.57
x1 = 0.761 | 16.12
x1 = 0.8628 | 17.52
x1 = 0.9345 | 18.4

C[N+](=O)[O-] + COC(C)=O
298.15 K, 101 kPa
Conditions | viscosity [mPa·s]
x1 = 0.1415 | 0.4094
x1 = 0.271 | 0.4445
x1 = 0.3891 | 0.4757
x1 = 0.498 | 0.5048
x1 = 0.5977 | 0.5313
x1 = 0.6903 | 0.5553
x1 = 0.7763 | 0.5776
x1 = 0.8562 | 0.5968
x1 = 0.9303 | 0.6147

C[N+](=O)[O-] + CC(C)CO
298.15 K, 101 kPa
Conditions | viscosity [mPa·s]
x1 = 0.1592 | 2.304
x1 = 0.2992 | 1.779
x1 = 0.4225 | 1.382
x1 = 0.5327 | 1.108
x1 = 0.6306 | 0.9667
x1 = 0.7193 | 0.822
x1 = 0.7993 | 0.7537
x1 = 0.8724 | 0.7066
x1 = 0.9387 | 0.6682
